Results taken from US9700046B2, “Herbicidal agents containing aclonifen” (BAYER CROPSCIENCE AG, priority 2012, dated 2017).

Assays:
[1] = system: Lolium spp. resistant to HRAC group A; test: Greenhouse experiment, post-emergence treatment of resistant ryegrass biotypes (HRAC group A resistant); type: in vivo; details: post-emergence (PO, BBCH 11), about 3 weeks after application, dose g of AS/ha: aclonifen 225, pendimethalin 300, diflufenican 30, mixture 225 + 300 + 30, pinoxaden + cloquintocet-mexyl 60 + 15
Procedure: (§1) In the standard design of the test, seeds of various broad-leaved weed and weed grass biotypes (origins) were sown in a 8-13 cm diameter pot filled with natural soil of a standard field soil (loamy silt; non-sterile) and covered with a covering soil layer of about 1 cm. The pots were then cultivated in a greenhouse (12-16 h light, temperature day 20-22° C., night 15-18° C.) until the time of application. The pots were treated on a laboratory track sprayer with spray liquors comprising the compositions according to the invention, mixtures of the prior art or components used individually. Application of the active compounds or active compound combinations formulated as WG, WP, EC or otherwise was carried out at the appropriate growth stages of the plants. The amount of water used for spray application was 100-600 l/ha. After the treatment, the plants were returned to the greenhouses.
(§2) About 3 weeks after the application, the soil action or/and foliar action was assessed visually according to a scale of 0-100% in comparison to an untreated comparative group: 0%=no noticable effect compared to the untreated comparative group; 100%=full effect compared to the untreated comparative group.
(§3) 2. Post-emergence action against weeds: seeds of various broad-leaved weed and weed grass biotypes (origins) were sown in a 8-13 cm diameter pot filled with natural soil of a standard field soil (loamy silt; non-sterile) and covered with a covering soil layer of about 1 cm. […]
(§4) Insofar as herbicidal effects of the compositions according to the invention compared to mixtures of the prior art or compared to components applied individually against economically important mono- and dicotyledonous harmful plants were the center of attention, the synergistic herbicidal activities were calculated using Colby's formula (cf. S. R. Colby; Weeds 15 (1967), 20-22): E^C=(A+B+C)−(A×B+A×C+B×C)/100+(A×B×C)/10000 where: […]
(§5) Δ=difference (%) of the measured value (%) to the expected value (%) (measured value minus expected value). […]

[2] = system: Lolium spp. resistant to HRAC group B; test: Greenhouse experiment, post-emergence treatment of resistant ryegrass biotypes (HRAC group B resistant); type: in vivo; details: post-emergence (PO, BBCH 11), about 3 weeks after application, dose g of AS/ha: aclonifen 225, pendimethalin 300, diflufenican 30, mixture 225 + 300 + 30, mesosulfuron + iodosulfuron + mefenpyr 15 + 3 + 45
Procedure: as §1, §2, §3, §4, §5

| Structure (SMILES) | herbicidal effect (visual assessment, scale 0-100% vs untreated), measured value [1] [%] | herbicidal effect (visual assessment, scale 0-100% vs untreated), measured value [2] [%] |
| --- | --- | --- |
| Nc1c([N+](=O)[O-])ccc(Oc2ccccc2)c1Cl [(A) aclonifen, 2-chloro-6-nitro-3-phenoxybenzenamine] | 25 | 50 |
| CCC(CC)Nc1c([N+](=O)[O-])cc(C)c(C)c1[N+](=O)[O-] [(B) pendimethalin, N-(1-ethylpropyl)-3,4-dimethyl-2,6-dinitrobenzenamine] | 5 | 0 |
| O=C(Nc1ccc(F)cc1F)c1cccnc1Oc1cccc(C(F)(F)F)c1 [(C) diflufenican, N-(2,4-difluorophenyl)-2-[3-(trifluoromethyl)phenoxy]-3-pyridinecarboxamide] | 10 | 5 |
